Test results published in patent US20230339835A1, “2,3,5-TRIMETHYL-6-NONYLCYCLOHEXA-2,5-DIENE-1,4-DIONE FOR SUPPRESSING AND TREATING ALPHA-SYNUCLEINOPATHIES, TAUOPATHIES, AND OTHER DISORDERS” (PTC THERAPEUTICS, INC., priority 2018, published 2023).

Legend:
[1] = biological target: T1, pre-formed fibrils (PFFs) of human wild-type Tau K18 fragment (Homo sapiens, UniProt P10636); assay: Cell-free Tau K18 WT pre-formed fibril disaggregation assay (Thioflavin T); assay type: biochemical; conditions: 10 μM Tau PFFs, 30 μM compound, 94 hr, vs vehicle (Dunnett's test)
T1 construct: human recombinant Tau K18 WT fragment were generated by incubating the Tau K18 monomer (Bio-Techne®); purchased Bio-Techne
Method: Summary: Compounds 2,3,5-trimethyl-6-nonylcyclohexa-2,5-diene-1,4-dione (C9), 2,3,5-trimethyl-6-octylcyclohexa-2,5-diene-1,4-dione (C8), and 2,3,5-trimethyl-6-heptylcyclohexa-2,5-diene-1,4-dione (C7) were tested for their ability to disaggregate pre-formed fibrils (PFFs) of human wild-type Tau K18 fragment, as measured by the decrease in fluorescence intensity of the aggregate-binding fluorophore, Thioflavin T, over time.
Experimental Methods: Pre-formed fibrils (PFFs) of the human recombinant Tau K18 WT fragment were generated by incubating the Tau K18 monomer (Bio-Techne®) with sodium heparin in a 1:1 ratio in presence of excess (50×) tris(2-carboxyethyl)phosphine (TCEP) as the reducing agent in Dulbecco's phosphate-buffered saline (DPBS) buffer (pH 7.4). The mixture was incubated for 4 days at 37° C. without agitation to yield PFFs in 100 μM final concentration.
Cell-free Tau disaggregation assays were set up with 10 μM of Tau PFFs in the presence of 30 μM of compound (from 10 mM stocks in DMSO) or in 0.3% (v/v) DMSO as vehicle. All solutions were prepared in DPBS buffer (pH 7.4) with 0.03% (v/v) NaN3 and 5 μM Thioflavin T (ThT), prepared as a master mix before addition of the protein or compounds. A protein master mix was first prepared the day before the assay to pre-equilibrate the Tau PFFs at 10 μM at ambient temperature and atmosphere. The next day, the pre-mixed protein solution was separated into 4 tubes (1 per condition). […]
Tau PFFs solution+/−compound and background samples were then loaded into wells of an optically transparent 96-well plate with black walls, which was sealed with a LightCycler® 480 seal (Roche Life Science), incubated at 37° C. for 15 minutes to equilibrate and the data collection was initiated. A Tecan M1000 spectrometer was used to collect data points on ThT fluorescence (ex/em 450/490 nm) every 30 minutes without agitation.
Data Analysis and Results: The maximum fluorescence intensity unit (FIU) value of the vehicle-treated Tau samples was set to 100%, to which all other FIU values were normalized relatively. […]

[2] = tested on: N27 rat dopaminergic cells overexpressing a truncated human αSynuclein-GFP fusion protein; assay: Inhibition of RSL3-induced αSynuclein aggregation in N27 cells; assay type: cell-based; conditions: 60 nM RSL3, 70 nM compound, 24 hr; for inhibition of RSL3-induced αSynuclein aggregation: vs RSL3 only (Dunnett's test)
Method: N27 rat dopaminergic cells (purchased from EMD Millipore, SCC048) were transformed to stably overexpress truncated α-Synuclein fused with green fluorescent protein (GFP) with a plasmid construct obtained from Origene (RG221446). Cells were maintained in selection media which consisted of RPMI 1640 media supplemented with 10% (v/v) fetal bovine serum (Millipore, ES-009-B), 1% (v/v) Pencillin-Streptomycin (Gibco, 15140-122), 1% (v/v) L-Glutamine (Gibco, 25030-081) and 500 μg/mL of G418 (Gibco, 10131-027).
N27 rat dopaminergic cells overexpressing a truncated (112 amino acid) human αSynuclein-GFP fusion protein, as described above, were maintained in normal culture conditions as described above. The day before the experiment, cells were plated in 96 well optical bottom, black walled plates at 3,000 cells/well, and maintained at 37° C. for 24 hr. The experiment was initiated by co-treating cells with (1S,3R)-methyl 2-(2-chloroacetyl)-1-(4-(methoxycarbonyl)phenyl)-2,3,4,9-tetrahydro-1H-pyrido[3,4-b]indole-3-carboxylate (1S,3R-RSL3, described by Yang et al., Cell 156:317-331 (2014)) (60 nM) and 70 nM compounds (2,3,5-trimethyl-6-nonylcyclohexa-2,5-diene-1,4-dione (C9), 2,3,5-trimethyl-6-octylcyclohexa-2,5-diene-1,4-dione (C8), or 2,3,5-trimethyl-6-heptylcyclohexa-2,5-diene-1,4-dione (C7)) using a D300e compound printer (Tecan), and placed back in the incubator at 37° C. for 24 hr. Cells were fixed with 4% paraformaldehyde for 15 minutes at room temperature, washed 3 times with Dulbecco's phosphate-buffered saline (DPBS) buffer, and then incubated at room temperature for 48 hr with 1% Triton-X 100 solution (in DPBS) to enable selective labeling of aggregated αSynuclein. Cells were then washed and standard immunocytochemistry (ICC) methods were employed to label total αSynuclein (mouse anti-αSynuclein, 1:250, BD Biosciences). Cells were incubated with primary antibody overnight at 4° C. and then washed with DPBS 3 times the following day. Cells were then incubated at room temperature with a fluorescently conjugated secondary antibody (goat anti-mouse Alexa 647, Invitrogen) for 2 hr at room temperature. 10 nM Hoechst was also added to label nuclei, and cells were imaged on a high-content imaging platform (ThermoFisher, HSC Cellomics Arrayscan) to quantify total aggregated αSynuclein (see FIG. 3A).
Statistical analysis of samples was performed via ordinary one-way ANOVA analysis with Dunnett's multiple comparisons test, comparing RSL3 only-treated vs. RSL3 plus compound-treated cells.

T1 sequence (P10636 561-685 limits assumed): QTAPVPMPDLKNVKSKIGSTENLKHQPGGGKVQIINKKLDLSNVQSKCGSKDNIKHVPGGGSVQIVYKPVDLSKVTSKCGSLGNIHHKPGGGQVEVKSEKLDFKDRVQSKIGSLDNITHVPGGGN

SMILES	reduction in Tau fibril content [1]	inhibition of RSL3-induced αSynuclein aggregation [2]	level of aggregation inhibition over C8 [2]
CCCCCCCCC1=C(C)C(=O)C(C)=C(C)C1=O [Compound C8, 2,3,5-trimethyl-6-octylcyclohexa-2,5-diene-1,4-dione, reference compound]	did not have a significant reduction	significant inhibition	–
CCCCCCCCCC1=C(C)C(=O)C(C)=C(C)C1=O [Compound C9, 2,3,5-trimethyl-6-nonylcyclohexa-2,5-diene-1,4-dione]	significant reduction	significant inhibition	approximately 5.45 fold
